EP0726072A2, “Composition for the treatment of hypertension and congestive heart failure, containing an angiotensin II antagonist and an endopeptidase inhibitor” (BRISTOL-MYERS SQUIBB COMPANY, priority 1995, dated 1996)

Columns and labels:
1K1C hypertensive dogs = test: Haemodynamic, renal and hormonal effects in conscious 1-kidney-1-clip hypertensive dogs; assay type: in vivo
Method: The studies described in this experiment were conducted in dogs that had been rendered hypertensive by prior unilateral nephrectomy and constriction of the remaining renal artery. This model is characterized by normal basal levels of plasma renin activity and is relatively resistant to the anti-hypertensive activity of angiotensin converting enzyme inhibitors and AT1 receptor antagonists.
The following experiments were conducted in fasted 1K1C hypertensive dogs lightly restrained in standard canine slings. An indwelling arterial catheter was accessed via a subcutaneous port for measurement of blood pressure via a Gould-Statham pressure transducer. Mean arterial pressure (MAP) was continuously recorded on a Gould chart writer and stored electronically using a Po-Ne-Mah data acquisition system. During each study, urine was collected at 20 minute intervals via a Foley bladder catheter for determination of urine volume. The concentrations of urinary sodium and potassium were measured using ion-selective electrodes and their rates of urinary excretion (µEq/min) were calculated. Glomerular filtration rate (GFR) and effective renal plasma flow (ERPF) were determined by the renal clearances of exogenous creatinine and para-aminohippuric acid (PAH), respectively. The concentrations of creatinine and PAH in sequential samples of urine and plasma were determined by spectrophotometric assays and the clearances were calculated by the standard formula.
Arterial blood samples were drawn at the end of the control period and at 60 minute intervals thereafter for determination of the plasma concentrations of atrial natriuretic peptide (ANP), cyclic GMP and plasma renin activity (PRA) by separate radioimmunoassays. The plasma and urine samples were preserved and the assays were conducted according to standard radioimmunoassay procedures. Urinary excretion rates of cyclic GMP and ANP were calculated and expressed as pmol/min and fmol/min, respectively.
In each study, baseline measurements were obtained during two 20 minute control periods. One of the treatments was then administered and sampling continued at 20 minute intervals for three hours.
To minimize inter-animal variability, each data point was expressed as the change from the average control value for that parameter. Significant differences among treatments were identified by analysis of variance for repeated measures. […] Results are given as mean ± SEM.

cardiomyopathic hamsters = conditions: 30 µmol/kg, i.v.; within 90 minutes; previously shown in this model; cited from earlier work
[1] = 20 min after treatment, 30 µmol/kg iv of each agent
[2] = 40 min after treatment, 30 µmol/kg iv of each agent
[3] = 60 min after treatment, 30 µmol/kg iv of each agent
[4] = 80 min after treatment, 30 µmol/kg iv of each agent
[5] = 100 min after treatment, 30 µmol/kg iv of each agent
[6] = 120 min after treatment, 30 µmol/kg iv of each agent
[7] = 140 min after treatment, 30 µmol/kg iv of each agent
[8] = 160 min after treatment, 30 µmol/kg iv of each agent
[9] = 180 min after treatment, 30 µmol/kg iv of each agent

O=C(O)CCNC(=O)C(CS)Cc1ccccc1 (racemic) [SQ 28603, (±)-N-[2-(mercaptomethyl)-1-oxo-3-phenylpropyl]-β-alanine]
increase in the amount of sodium excreted during the 3 hours after injection (1K1C hypertensive dogs; 30 µmol/kg iv of each agent, cumulative over 3 hours): 5.2±2.3 mEq/3 hr
Cyclic GMP excretion, change over 3 hr (1K1C hypertensive dogs; 30 µmol/kg iv of each agent, not statistically significant compared to vehicle): +32±28 nmol/3 hr
ANP Excretion, Change from control (1K1C hypertensive dogs; [1]): 20.8 ± 4.9 fmol/min
Cyclic GMP Excretion, Change from control (1K1C hypertensive dogs; [1]): 106 ± 295 pmol/min
Effective Renal Plasma Flow, Change from control (1K1C hypertensive dogs; [1]): 6 ± 38 mL/min
Glomerular Filtration Rate, Change from control (1K1C hypertensive dogs; [1]): 6 ± 11 mL/min
Mean Arterial Pressure, Change from control (1K1C hypertensive dogs; [1]): 6±1 mm Hg
Sodium Excretion, Change from control (1K1C hypertensive dogs; [1]): 13±4 µEq/min
Urine Volume, Change from control (1K1C hypertensive dogs; [1]): 0.29 ± 0.31 mL/min
ANP Excretion, Change from control (1K1C hypertensive dogs; [2]): 24.0 ± 4.6 fmol/min
Cyclic GMP Excretion, Change from control (1K1C hypertensive dogs; [2]): 101 ± 280 pmol/min
Effective Renal Plasma Flow, Change from control (1K1C hypertensive dogs; [2]): -5 ± 15 mL/min
Glomerular Filtration Rate, Change from control (1K1C hypertensive dogs; [2]): 3 ± 2 mL/min
Mean Arterial Pressure, Change from control (1K1C hypertensive dogs; [2]): 9±3 mm Hg
Sodium Excretion, Change from control (1K1C hypertensive dogs; [2]): 21±16 µEq/min
Urine Volume, Change from control (1K1C hypertensive dogs; [2]): 0.15 ± 0.13 mL/min
ANP Excretion, Change from control (1K1C hypertensive dogs; [3]): 45.2 ± 24.2 fmol/min
Cyclic GMP Excretion, Change from control (1K1C hypertensive dogs; [3]): 338 ± 206 pmol/min
Effective Renal Plasma Flow, Change from control (1K1C hypertensive dogs; [3]): 3 ± 20 mL/min
Glomerular Filtration Rate, Change from control (1K1C hypertensive dogs; [3]): 6 ± 5 mL/min
Mean Arterial Pressure, Change from control (1K1C hypertensive dogs; [3]): 8±3 mm Hg
Plasma Renin Activity, Change from control (1K1C hypertensive dogs; [3]): -0.07±0.05 pmol AI/ml/hr
Sodium Excretion, Change from control (1K1C hypertensive dogs; [3]): 14±9 µEq/min
Urine Volume, Change from control (1K1C hypertensive dogs; [3]): 0.18 ± 0.14 mL/min
ANP Excretion, Change from control (1K1C hypertensive dogs; [4]): 55.5 ± 19.7 fmol/min
Cyclic GMP Excretion, Change from control (1K1C hypertensive dogs; [4]): 226 ± 154 pmol/min
Effective Renal Plasma Flow, Change from control (1K1C hypertensive dogs; [4]): -20 ± 6 mL/min
Glomerular Filtration Rate, Change from control (1K1C hypertensive dogs; [4]): 5 ± 2 mL/min
Mean Arterial Pressure, Change from control (1K1C hypertensive dogs; [4]): 8±2 mm Hg
Sodium Excretion, Change from control (1K1C hypertensive dogs; [4]): 25±13 µEq/min
Urine Volume, Change from control (1K1C hypertensive dogs; [4]): 0.21 ± 0.15 mL/min
ANP Excretion, Change from control (1K1C hypertensive dogs; [5]): 41.0 ± 12.3 fmol/min
Cyclic GMP Excretion, Change from control (1K1C hypertensive dogs; [5]): 128 ± 178 pmol/min
Effective Renal Plasma Flow, Change from control (1K1C hypertensive dogs; [5]): -25 ± 10 mL/min
Glomerular Filtration Rate, Change from control (1K1C hypertensive dogs; [5]): 5 ± 4 mL/min
Mean Arterial Pressure, Change from control (1K1C hypertensive dogs; [5]): 5±3 mm Hg
Sodium Excretion, Change from control (1K1C hypertensive dogs; [5]): 24±12 µEq/min
Urine Volume, Change from control (1K1C hypertensive dogs; [5]): 0.07 ± 0.08 mL/min
ANP Excretion, Change from control (1K1C hypertensive dogs; [6]): 48.3 ± 21.5 fmol/min
Cyclic GMP Excretion, Change from control (1K1C hypertensive dogs; [6]): 117 ± 220 pmol/min
Effective Renal Plasma Flow, Change from control (1K1C hypertensive dogs; [6]): -15 ± 6 mL/min
Glomerular Filtration Rate, Change from control (1K1C hypertensive dogs; [6]): 5 ± 1 mL/min
Mean Arterial Pressure, Change from control (1K1C hypertensive dogs; [6]): 3±4 mm Hg
Plasma Renin Activity, Change from control (1K1C hypertensive dogs; [6]): -0.02±0.05 pmol AI/ml/hr
Sodium Excretion, Change from control (1K1C hypertensive dogs; [6]): 35±19 µEq/min
Urine Volume, Change from control (1K1C hypertensive dogs; [6]): 0.12 ± 0.13 mL/min
ANP Excretion, Change from control (1K1C hypertensive dogs; [7]): 41.8 ± 14.2 fmol/min
Cyclic GMP Excretion, Change from control (1K1C hypertensive dogs; [7]): 121 ± 182 pmol/min
Effective Renal Plasma Flow, Change from control (1K1C hypertensive dogs; [7]): -11 ± 12 mL/min
Glomerular Filtration Rate, Change from control (1K1C hypertensive dogs; [7]): 7 ± 4 mL/min
Mean Arterial Pressure, Change from control (1K1C hypertensive dogs; [7]): 4±2 mm Hg
Sodium Excretion, Change from control (1K1C hypertensive dogs; [7]): 39±18 µEq/min
Urine Volume, Change from control (1K1C hypertensive dogs; [7]): 0.20 ± 0.10 mL/min
ANP Excretion, Change from control (1K1C hypertensive dogs; [8]): 36.9 ± 12.4 fmol/min
Cyclic GMP Excretion, Change from control (1K1C hypertensive dogs; [8]): 100 ± 246 pmol/min
Effective Renal Plasma Flow, Change from control (1K1C hypertensive dogs; [8]): -1 ± 12 mL/min
Glomerular Filtration Rate, Change from control (1K1C hypertensive dogs; [8]): 9 ± 5 mL/min
Mean Arterial Pressure, Change from control (1K1C hypertensive dogs; [8]): 5±2 mm Hg
Sodium Excretion, Change from control (1K1C hypertensive dogs; [8]): 44±19 µEq/min
Urine Volume, Change from control (1K1C hypertensive dogs; [8]): 0.24 ± 0.11 mL/min
ANP Excretion, Change from control (1K1C hypertensive dogs; [9]): 29.0 ± 7.9 fmol/min
Cyclic GMP Excretion, Change from control (1K1C hypertensive dogs; [9]): 343 ± 170 pmol/min
Effective Renal Plasma Flow, Change from control (1K1C hypertensive dogs; [9]): -4 ± 9 mL/min
Glomerular Filtration Rate, Change from control (1K1C hypertensive dogs; [9]): 10 ± 4 mL/min
Mean Arterial Pressure, Change from control (1K1C hypertensive dogs; [9]): 7±3 mm Hg
Plasma Renin Activity, Change from control (1K1C hypertensive dogs; [9]): -0.01±0.7 pmol AI/ml/hr
Sodium Excretion, Change from control (1K1C hypertensive dogs; [9]): 44±18 µEq/min
Urine Volume, Change from control (1K1C hypertensive dogs; [9]): 0.17 ± 0.06 mL/min
ANP Excretion (1K1C hypertensive dogs; Control, before treatment): 1.9 ± 0.2 fmol/min
Cyclic GMP Excretion (1K1C hypertensive dogs; Control, before treatment): 1017 ± 180 pmol/min
Effective Renal Plasma Flow (1K1C hypertensive dogs; Control, before treatment): 123 ± 15 mL/min
Glomerular Filtration Rate (1K1C hypertensive dogs; Control, before treatment): 39 ± 5 mL/min
Mean Arterial Pressure (1K1C hypertensive dogs; Control, before treatment): 132±8 mm Hg
Plasma Renin Activity (1K1C hypertensive dogs; Control, before treatment): 0.16±0.02 pmol AI/ml/hr
Sodium Excretion (1K1C hypertensive dogs; Control, before treatment): 40±20 µEq/min
Urine Volume (1K1C hypertensive dogs; Control, before treatment): 0.38 ± 0.13 mL/min
sodium excretion, effect in words (1K1C hypertensive dogs; summary of TABLE 2, 30 µmol/kg iv of each agent, 3 hours): increased
urine volume, effect in words (1K1C hypertensive dogs; summary of TABLE 3, 30 µmol/kg iv of each agent, 3 hours): increased
Urinary excretion of ANP, effect in words (1K1C hypertensive dogs; summary of TABLE 6, 30 µmol/kg iv of each agent): increased significantly
mean arterial pressure (MAP), effect in words (1K1C hypertensive dogs; summary of Table 1, 30 µmol/kg iv of each agent, 3 hours): initially increased
plasma atrial natriuretic peptide concentration (cardiomyopathic hamsters): doubling
